{"source": "patent US12648924B2", "about": "“Prevention and treatment of effects of aging and age-associated disorders with ketone supplementation” (priority 2020, dated 2026)", "format_in_all_cases": "in vivo, VM/Dk mice", "key": {"VM-M3 cells": {"system": "VM-M3 cells", "assay": "KDE in VM-M3 model of cancer anorexia cachexia syndrome (Experiment 4c)", "conditions": "30% KDE in diet", "from_the_text": "Animals: Five breeding pairs of the VM/Dk strain of mice were used to establish and propagate a VM/Dk mouse colony in the University of South Florida (USF) Morsani College of Medicine Vivarium according to standard husbandry protocol. Male and female VM/Dk mice between 10-23 weeks of age were singly housed to accurately assess individual animal food intake. Bodyweight and food intake were tracked daily prior to and post-social isolation to ensure bodyweight and food intake normalized prior to cell inoculation (Table 1). Animals were distributed into one of four groups: Sham Male (SH-M), Sham Female (SH-F), Cancer Male (CA-M), and Cancer Female (CA-F). Each cancer animal was matched with a sham animal of equivalent sex, bodyweight, age, and food intake (FIGS. 8A-8B) to ensure appropriate cancer and sex-specific comparisons. To determine KDE-induced effects in CACS, VM/Dk animals were distributed into one of three groups: KDE+VM-M3, VM-M3, and Sham with equivalent sex, bodyweight, age and food intake at baseline (FIG. 13A). One premature death occurred in SH-F (Experiment 1a) and Sham (Experiment 4c) groups immediately post-inoculation. To determine KDE-induced effects post-LPS administration, VM/Dk animals were distributed into two groups (FIGS. 14A-14B): KDE+LPS and LPS of equivalent bodyweights. All procedures were approved by the USF Institutional Animal Care and Use Committee (USF IACUC; Protocol Number R1900 & R5829) and performed under strict adherence to the NIH Guide for the Care and Use of Laboratory Animals.\nVM-M3 Cell and Lipopolysaccharide Implantation: For VM-M3 implantation in the model characterization experiments (FIG. 1-5; FIG. 8-12), ˜1×10^6 VM-M3 cells (T. Seyfried, Boston College) in 300 μL sterile PBS (CA-M and CA-F) or 300 μL sterile PBS-only (SH-M and SH-F) were injected subcutaneously into the left abdominal flank resulting in primary tumor formation at the injection site, and subsequently systemically metastasizes to most major organs, namely the liver, kidneys, spleen, lungs, and brain. […] This method of implantation further minimized variability in markers of tumor progression, and therefore provides a useful optional method technique in the VM-M3 model for efficient analysis of potential therapeutic agents. To determine KDE-induced effects on CACS, 1×10^6 VM-M3 cells in 300 μL sterile PBS (KDE+VM-M3 and VM-M3) or 300 μL sterile PBS-only (Sham) were administered intraperitoneally (FIG. 6; FIG. 13). For LPS administration in the septic atrophy model, LPS (Escherichia coli 055:B5; L2880; Sigma-Aldrich, St. Louis, MO) was diluted in sterile PBS and administered intraperitoneally at 10 mg/kg as pilot work indicated a maximal, yet non-fatal, ˜15% bodyweight reduction at 10 mg/kg dose.\nTumor Growth and Metastasis: Tumor growth was monitored weekly as a measure of bioluminescence using the Xenogen IVIS Spectrum system (Caliper LS, Hopkinton, MA). Data acquisition and analysis was performed using the Living Image@ software (Caliper LS). Approximately 15 minutes prior to in vivo imaging, VM/Dk mice received an intraperitoneal injection of D-Luciferin (50 mg/kg; 88293, Thermo Fisher Scientific; Waltham, MA). Bioluminescent signal was obtained using the IVIS Lumina cooled CCD camera system in both prone and supine positions. As only the cancer cells were transfected with the luciferase gene, bioluminescent signal (photons/sec) of the whole animal was measured and tracked over time as an indicator of tumor burden and metastatic spread. At EOL, primary tumor, spleen, liver, and adipose tissue were gathered and saturated with D-Luciferin (10 μL D-Luciferin+PBS/g tissue at 5 mg D-Luciferin/mL PBS dilution) for 5 mins and imaged to determine tumor burden. Ascites fluid was imaged 15 minutes after resuspension with D-Luciferin (20 μL D-Luciferin+PBS/mL ascites fluid at 5 mg D-Luciferin/mL PBS dilution) to assess presence of circulating tumor cells. […]"}, "[1]": {"assay": "Blood glucose and ketones after single KDE gavage at various dosages (Experiment 5a)", "conditions": "vs timepoint 0", "experimental": "Metabolic Biomarkers: Blood glucose and R β-hydroxybutyrate were measured using Precision Xtra™ Blood Glucose & Ketone Monitoring System (Abbott Laboratories, Abbott Park, IL). Blood lactate concentration was measured using Lactate Plus Lactate Meter (Nova Biomedical). IGF-1 and Insulin were relabeled for blinded analysis and subsequently analyzed using Luminex 100 system (Luminex, Austin, TX) with R&D Systems Mouse 1-Plex Luminex Assay (R&D Systems, Minneapolis, MN) and Milliplex Mouse Multiplex Kit (Millipore, St. Charles, MO), respectively, using manufacturer's protocol.\nKetone Diester Mitigates Bodyweight Loss and Comorbidities in Inflammation-Induced Atrophy: Reductions in anorexia, tumor burden, and skeletal muscle atrophy all present ideal outcomes in the clinical environment of CACS. It should be noted, however, that altered anorexia and tumor burden can confound interpretation of the direct effects of the KDE on skeletal muscle atrophy. […] Due to the rapid nature of LPS-induced atrophy, various dosages of KDE were gavaged to determine their ability to rapidly shift systemic metabolism. […] To determine KDE's effect on cancer-independent catabolism, a maximal non-fatal LPS dose (10 mg/kg) was administered, followed by a single 4 mL/kg water (LPS) or KDE (KDE+LPS) gavage. KDE attenuated bodyweight loss 47% within the first 24 hours post-LPS administration (FIG. 7B)."}, "[2]": {"assay": "KDE in LPS-induced atrophy, pair-fed animals (Experiment 5c)", "conditions": "single 4 mL/kg KDE gavage after 10 mg/kg LPS, 1 day post LPS, vs LPS group"}, "[3]": {"conditions": "weekly, KDE+VM-M3 vs VM-M3 and Sham"}}}
{"smiles": "CC(=O)CC(=O)OCCC(C)OC(=O)CC(C)=O", "note": "(stereo not drawn) [KDE, R/S 1,3-butanediol acetoacetate diester]", "values": [{"measurement": "blood lactate", "setting": "VM-M3 cells; KDE+VM-M3 vs VM-M3", "value": "No difference"}, {"measurement": "food intake (anorexic phenotype)", "setting": "VM-M3 cells; KDE+VM-M3 vs VM-M3", "value": "attenuation of the predicted anorexic phenotype"}, {"measurement": "bodyweight", "setting": "VM-M3 cells; daily, KDE+VM-M3 vs VM-M3 and Sham", "value": "lower bodyweight"}, {"measurement": "ascites fluid weight", "setting": "VM-M3 cells; week 3, KDE+VM-M3 group (VM-M3 alone 3.0 g, Sham 0 g)", "value": 1.9, "unit": "g"}, {"measurement": "ascites fluid (surrogate marker of metastatic spread)", "setting": "VM-M3 cells; week 3, KDE+VM-M3 vs VM-M3", "value": "significantly reduced"}, {"measurement": "intraperitoneal adipose tissue weight (adipose tissue catabolism)", "setting": "VM-M3 cells; week 3, KDE+VM-M3 vs VM-M3", "value": "unable to alter adipose tissue catabolism"}, {"measurement": "serum IGF-1", "setting": "VM-M3 cells; week 3, KDE+VM-M3 vs VM-M3", "value": "did not alter circulating anabolic hormone levels"}, {"measurement": "serum insulin", "setting": "VM-M3 cells; week 3, KDE+VM-M3 vs VM-M3", "value": "did not alter circulating anabolic hormone levels"}, {"measurement": "skeletal muscle atrophy (Gastrocnemius, Soleus, Quadricep, Tibialis Anterior, Hind Limb weights)", "setting": "VM-M3 cells; week 3, KDE+VM-M3 vs VM-M3", "value": "did attenuate muscle atrophy"}, {"measurement": "cardiac tissue weight set to baseline bodyweight", "setting": "VM-M3 cells; week 3, across groups", "value": "unaltered"}, {"measurement": "whole animal tumor burden (in vivo bioluminescence)", "setting": "VM-M3 cells; weekly imaging, KDE+VM-M3 vs VM-M3", "value": "non-significant reductions"}, {"measurement": "blood glucose", "setting": "VM-M3 cells; [3]", "value": "reductions in blood glucose"}, {"measurement": "circulating ketones", "setting": "VM-M3 cells; [3]", "value": "sustained elevations"}, {"measurement": "blood glucose", "setting": "[1]; 4 mL/kg KDE gavage", "value": "significant and rapid reductions"}, {"measurement": "blood ketones", "setting": "[1]; 4 mL/kg KDE gavage", "value": "elevations in blood ketones"}, {"measurement": "blood glucose", "setting": "[1]; 5 mL/kg KDE gavage", "value": "significant and rapid reductions"}, {"measurement": "blood ketones", "setting": "[1]; 5 mL/kg KDE gavage", "value": "elevations in blood ketones"}, {"measurement": "reduction of bodyweight loss", "setting": "[2]", "value": 28, "unit": "%"}]}
